Reference: ChEMBL document CHEMBL6121062, “Discovery, Optimization, and Preclinical Pharmacology of EP652, a METTL3 Inhibitor with Efficacy in Liquid and Solid Tumor Models” (J Med Chem, 2025)

What was measured:
[1] = biological target: METTL3/METTL14 (Homo sapiens, UniProt Q86U44); assay: Displacement of [3H]-SAM from METTL3/METTL14 (unknown origin) using 5'biotinylated-UACACUCGAUCUGGACUAAAGGUGCUC-3' RNA as substrate preincubated for 10 mins followed by substrate/[3H]-SAM addition measured after 90 mins by SPA; assay type: protein-complex assay
[2] = tested on: Kasumi 1; assay: Antiproliferative activity against human Kasumi 1 cells assessed as inhibition of cell viability incubated for 72 hrs by ATPlite assay; assay type: functional, cell-based; conditions: Kasumi 1, 72 h
[3] = Unbound fraction in Sprague-Dawley rat plasma at 1 mg/kg/day, iv measured for 24 hrs by LC-MS/MS analysis; assay type: ADME, organism-based; conditions: in vivo
[4] = Lipophilicity, logD of compound in 1-octanol/PBS at pH 7.4 incubated for 24 hrs by HPLC analysis; assay type: physicochemical
[5] = Unbound clearance in Sprague-Dawley rat at 1 mg/kg/day, iv measured for 24 hrs by LC-MS/MS analysis; assay type: ADME, organism-based; conditions: in vivo
[6] = Unbound AUC in Sprague-Dawley rat at 1 mg/kg/day, iv measured for 24 hrs by LC-MS/MS analysis; assay type: ADME, organism-based; conditions: in vivo

Chain of METTL3/METTL14 (Q86U44 whole entry): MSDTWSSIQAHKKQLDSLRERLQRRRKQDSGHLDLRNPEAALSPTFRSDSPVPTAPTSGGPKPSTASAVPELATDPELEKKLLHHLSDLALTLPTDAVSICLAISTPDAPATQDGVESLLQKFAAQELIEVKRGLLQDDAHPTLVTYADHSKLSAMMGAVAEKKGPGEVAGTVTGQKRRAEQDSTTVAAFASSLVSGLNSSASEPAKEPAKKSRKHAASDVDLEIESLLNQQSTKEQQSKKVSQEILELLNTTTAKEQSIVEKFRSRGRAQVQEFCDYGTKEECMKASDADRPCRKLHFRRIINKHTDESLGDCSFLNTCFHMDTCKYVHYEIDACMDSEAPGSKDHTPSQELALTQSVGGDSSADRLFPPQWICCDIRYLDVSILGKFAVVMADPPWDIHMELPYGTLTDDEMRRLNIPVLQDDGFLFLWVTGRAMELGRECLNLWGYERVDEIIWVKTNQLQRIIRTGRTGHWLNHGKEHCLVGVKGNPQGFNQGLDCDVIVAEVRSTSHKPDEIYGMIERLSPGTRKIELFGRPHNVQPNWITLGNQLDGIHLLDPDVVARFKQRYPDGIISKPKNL
Chain of METTL3/METTL14 (Q9HCE5 whole entry, further chain): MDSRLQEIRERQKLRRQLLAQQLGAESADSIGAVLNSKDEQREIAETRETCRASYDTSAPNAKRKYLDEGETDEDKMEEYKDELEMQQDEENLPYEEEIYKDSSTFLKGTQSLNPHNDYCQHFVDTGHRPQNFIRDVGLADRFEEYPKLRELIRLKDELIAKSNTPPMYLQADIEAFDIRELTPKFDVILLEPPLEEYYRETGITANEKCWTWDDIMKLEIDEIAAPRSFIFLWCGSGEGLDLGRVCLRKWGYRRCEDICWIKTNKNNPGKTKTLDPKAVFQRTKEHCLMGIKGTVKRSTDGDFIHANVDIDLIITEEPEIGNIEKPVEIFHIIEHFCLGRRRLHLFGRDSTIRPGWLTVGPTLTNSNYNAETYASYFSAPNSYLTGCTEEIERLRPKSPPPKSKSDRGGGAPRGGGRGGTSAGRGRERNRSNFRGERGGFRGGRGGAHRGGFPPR

Compound	IC50 [1]	IC50 [2]	Fu [3]	logD at 24 h [4]	CL free [5]	fAUC [6]
CCC(c1ccc(N2CCC[C@@H](NCC3CCC3)C2)nn1)n1cc(-c2cncc(OC)c2)nn1 (some centres undefined)	31 nM	6000 nM	11.2%	1.9	–	–
COc1cncc(-c2cn(C(c3ccc(N4CCC[C@@H](NCC5CCC5)C4)nn3)C(F)(F)F)nn2)c1 (some centres undefined)	12 nM	12200 nM	–	2.43	–	–
CC(n1cc(-c2cccn3cncc23)nn1)n1ccc(N2CCC[C@@H](NCC3CCC3)C2)cc1=O (some centres undefined)	8 nM	5400 nM	–	1.53	–	–
COc1cncc(-c2cc(C(C)n3ccc(N4CCC[C@@H](NCC5CCC5)C4)cc3=O)sn2)c1 (some centres undefined)	11 nM	1720 nM	–	2.26	–	–
CC(n1cc(-c2cccnc2)nn1)n1ccc(N2CCC[C@@H](NCC3CCC3)C2)cc1=O (some centres undefined)	39 nM	8120 nM	–	0.87	–	–
COc1cncc(-c2cn(Cc3ccc(N4CCCCC(NCC5CCC5)C4)nn3)nn2)c1 (centres undefined)	50 nM	> 30000 nM	–	1.18	–	–
COc1cncc(-c2cn(Cc3ccc(C4CCCC(NCC5CCC5)C4)nn3)nn2)c1 (centres undefined)	215 nM	> 30000 nM	–	1.55	–	–
CC(n1cc(-c2cncc(N3CCCC3)c2)nn1)n1ccc(N2CCC[C@@H](NCC3CC3)C2)cc1=O (some centres undefined)	3 nM	11 nM	–	1.93	1487 mL/min/kg	1.3 µM·min
COc1cncc(-c2cn(Cc3ccc(N4CCC[C@@H](NCC5CCC5)C4)cc3)nn2)c1	6 nM	875 nM	–	2.04	–	–
COc1cc(-c2cn(Cc3ccc(N4CCC[C@@H](NC5CCC5)C4)nn3)nn2)c2cn[nH]c2c1	5 nM	2740 nM	–	1.71	–	–
COc1cc(-c2cn(Cc3ccc(N4CCC[C@@H](NC5CC56CCC6)C4)nn3)nn2)c2cn[nH]c2c1 (some centres undefined)	4 nM	1100 nM	–	3.06	–	–
COc1cc(-c2cn(Cc3ccc(N4CCC[C@@H](NC(=O)C5CCC5)C4)nn3)nn2)c2cn[nH]c2c1	–	> 30000 nM	–	2.61	–	–
COc1cncc(-c2cn(Cc3ccc(N4CC5(CCC5NCC5CCC5)C4)nn3)nn2)c1 (centres undefined)	2300 nM	> 30000 nM	–	1.54	–	–
COc1cncc(-c2cc(C(C)n3ccc(N4CCC[C@@H](NCC5CCC5)C4)cc3=O)on2)c1 (some centres undefined)	7 nM	1840 nM	–	1.63	–	–
CC(n1cc(-c2cncc(N3CCCC3)c2)nn1)n1ccc(N2CCC[C@@H](NCC3CCC3)C2)cc1=O (some centres undefined)	2 nM	7 nM	–	2.49	1913 mL/min/kg	1 µM·min
COc1cncc(-c2nnn(C(C)n3ccc(N4CCC[C@@H](NCC5CCC5)C4)cc3=O)n2)c1 (some centres undefined)	13 nM	5500 nM	–	1.52	–	–
COc1cc(-c2cn(C(C)n3ccc(N4CCC[C@@H](NCC5CCC5)C4)cc3=O)nn2)c2cn[nH]c2c1 (some centres undefined)	2 nM	437 nM	–	2.13	2269 mL/min/kg	0.9 µM·min
COc1cncc(-n2cc(C(C)n3ccc(N4CCC[C@@H](NCC5CCC5)C4)cc3=O)nn2)c1 (some centres undefined)	7 nM	1930 nM	–	1.12	–	–
COc1cc(-c2cn(Cc3ccc(N4CCC[C@@H](NCC5CC5)C4)nn3)nn2)c2cn[nH]c2c1	2 nM	1050 nM	–	1.63	–	–
COc1cncc(-c2cn(Cc3ccc(N4CCC[C@@H](NCC5CCC5)C4)nc3)nn2)c1	7 nM	1200 nM	–	1.46	–	–
COc1cncc(-c2cn(Cc3ccc(N4CCCC(NCC5CCC5)C4=O)nn3)nn2)c1 (centres undefined)	> 30000 nM	> 30000 nM	–	1.15	–	–
COc1cc(-c2cn(Cc3ccc(N4CCC[C@@H](NC(C)C5CCC5)C4)nn3)nn2)c2cn[nH]c2c1 (some centres undefined)	–	10100 nM	–	2.14	–	–
COc1cncc(-c2cn(Cn3ncc(N4CCC[C@@H](NCC5CCC5)C4)cc3=O)nn2)c1	26 nM	11800 nM	–	1.06	–	–
COc1cnnc(-c2cn(C(C)n3ccc(N4CCC[C@@H](NCC5CCC5)C4)cc3=O)nn2)c1 (some centres undefined)	5 nM	5420 nM	–	0.62	–	–
COc1cncc(-n2cc(C(C)n3ccc(N4CCC[C@@H](NCC5CCC5)C4)cc3=O)cn2)c1 (some centres undefined)	1 nM	306 nM	–	1.6	608 mL/min/kg	–
COc1cc(-c2cn(Cc3ccc(N4CCC(NCC5CCC5)C4)nn3)nn2)c2cn[nH]c2c1 (centres undefined)	235 nM	15300 nM	–	1.95	–	–
